Where a SMILES comes first, the peptide text is derived from it. Where no end group is shown, it is not given here. The star is where a group is joined. Palmitoyl = CCCCCCCCCCCCCCCC(=O)*

The subject of series [1] is B16 melanoma cells. In words: Melanocyte intracellular penetration of peptide+FITC. In kind it is cell-based. To be noted: 72 hours. How it is done: (§1) B16 melanoma cells were cultured at 37° C. and 5% of CO2 in microplates with 96 wells in the presence of DMEM (Invitrogen, reference 11880028) containing 1 g/l of glucose without phenol red supplemented by 3 g/l of glucose (Sigma, reference G7021), 2 mM of L-glutamine, 50 UI/ml of penicillin, 50 μg/ml of […] (Invitrogen, reference 15070063) and 10% of fetal veal serum (Invitrogen, 10270098). After 24 h, the culture medium is replaced by a DMEM medium containing or not (control) a stable derivative of α-MSH, i.e. NDP-MSH (NLE-4-D-PHE-7-A Melanocytes Stimulating Hormone, Sigma, reference M-8764) and containing or not the peptide (compound 3 of example 1 or its N-palmitoyl derivative) according to the invention. Each peptide was tested with and without lipofectamine, (Invitrogen, reference 1538-100), an agent used to facilitate the peptide penetration. The melanocytes were then incubated for 72 hours at 37° C. and 5% of CO2.
At the end of the incubation period, the medium was eliminated and cells were rinsed with a solution of PBS (phosphate buffer saline). The penetration of each peptide was analyzed by microscopy (In Cell Analyser® 100, GE Healthcare) with the objective ×20 or by Flux Cytometry after unsticking of cells by enzymatic treatment with trypsine (Flux FACSarray, Becton Dickinson).
The following table 1 illustrates the measurement of the penetration of the peptide+FITC (fluoresceine isothiocyanate) in B16 melanocytes at different peptide concentrations (4, 20, 100 and 500 μg/ml).

The subject of series [2] is binding of AP-2 to the dileucine-based sorting signal containing tyrosinase. Kind of series: BIAcore competition: binding of AP-2 to tyrosinase tail peptide. On the set-up: species or system human. To be noted: 200 nM adaptor, 10-1000 fold molar excess of peptide; FIG. 3. How it is done:
(§2) Human tyrosinase also contains tyrosine residues in its cytoplasmic tail sequence, however they are not relevant with respect to adaptor binding. Instead, the tail contains a dileucine-based sorting signal that is bound by adaptors such as AP-2 and AP-3.
(§3) Binding between adaptors and the tyrosinase tail peptide was recorded in real-time using a BIAcore 3000 biosensor (GEHealthcare) based on surface plasmon resonance. The tyrosinase tail peptide (sequence: -[…]) (SEQ ID NO: 6) was immobilized on the surface of a CM5 sensor surface using thiol coupling and resulting in the immobilization of ≦300 RU of peptide. In brief, the CM5 surface was activated with EDC/NHS for 2 min at a flow-rate of 10 μl/min, followed by modification with PDEA for another 2 min. Subsequently, peptide was injected at a flow-rate of 5 μl/min for 1 min at a concentration of 5 μg/ml in 10 mM sodium acetate pH 4.5. The flow-rate was then adjusted to 20 μl/min and remaining active groups were blocked by injection of 50 mM cysteine, 1M NaCl. […]
(§4) For competition experiments, 200 nM adaptors were incubated with a 10-1000 fold molar excess of one of the 5 compound peptides for 10 min prior to injection. For comparison of adaptor binding to the immobilized tyrosinase tail, the RU values at the end of the injection (association period) and after the dissociation period were evaluated. […]
(In general: SPR reads the build-up and loss of mass on a sensor chip optically.)

Series [3] has as its system binding of AP-3 to the dileucine-based sorting signal containing tyrosinase. Kind of series: BIAcore competition: binding of AP-3 to tyrosinase tail peptide. More on the design: species or system human. To be noted: 200 nM adaptor, 10-1000 fold molar excess of peptide; FIG. 4. How it is done:
as §2, §3, §4

In series [4] the test system is B16 melanoma cells. In words: Effect on melanogenesis (melanin, absorption at 405 nm) boosted by NDP-MSH. In kind it is cell-based. To be noted: for inhibition of the synthesis of melanine: with NDP-MSH, 96 hours. How it is done:
as §1
The protocol used is the same as in example 3. The melanocytes were incubated for 96 hours at 37° C. and 5% of CO2. Kojic acid was used as a positive control.
At the end of the incubation period, the quantity of melanine was evaluated by measuring the absorption at 405 nm for each sample.

Where [5] appears, read: without lipofectamine, 20 μg/ml.
The mark [6] stands for this setting: without lipofectamine, 100 μg/ml.
The mark [7] stands for this setting: without lipofectamine, 500 μg/ml.

For the compound AEDEPLLME [Compound 3, AEDEPLLME], the “penetration of the peptide+FITC in B16 melanocytes” value (from here on “penetration of the peptide+FITC”) is 166 % control in series [1] (with lipofectamine, 4 μg/ml); 338 % control in series [1] (with lipofectamine, 20 μg/ml); 1097 % control in series [1] (with lipofectamine, 100 μg/ml); 4265 % control in series [1] (with lipofectamine, 500 μg/ml); “ns *” in series [1] (without lipofectamine, 4 μg/ml); 263 % control in series [1] (setting [5]). Moreover, the “penetration of the peptide+FITC” value in series [1] (setting [6]) was found to be 533 % control; in series [1] (setting [7]), 1640 % control.

On to AEDEPLLVD [Compound 4], for which the “inhibition of the binding of AP-2 to tyrosinase” value in series [2] is reported as “most active”. Besides, the “inhibition of the binding of AP-3 to tyrosinase” value in series [3] is reported as “most active”.

With `CCCCCCCCCCCCCCCC(=O)N[C@@H](C)C(=O)N[C@@H](CCC(=O)O)C(=O)N[C@@H](CC(=O)O)C(=O)N[C@@H](CCC(=O)O)C(=O)N1CCC[C@H]1C(=O)N[C@@H](CC(C)C)C(=O)N[C@@H](CC(C)C)C(=O)N[C@@H](CCSC)C(=O)N[C@@H](CCC(=O)O)C(=O)O` [N-palmitoyl derivative of compound 3] (Palmitoyl-AEDEPLLME-OH; C-terminus assumed), the “inhibition of the synthesis of melanine” value is given as “ns *” in series [4] (without lipofectamine, 0.5 μg/ml); 9 % of inhibition in series [4] (without lipofectamine, 1 μg/ml); 10 % of inhibition in series [4] (without lipofectamine, 2.5 μg/ml); 14 % of inhibition in series [4] (without lipofectamine, 5 μg/ml); 20 % of inhibition in series [4] (without lipofectamine, 10 μg/ml). Also, the “penetration of the peptide+FITC” value in series [1] (with lipofectamine, 4 μg/ml) amounted to 765 % control; in series [1] (with lipofectamine, 20 μg/ml) it was 1495 % control; in series [1] (with lipofectamine, 100 μg/ml) it was 1331 % control; in series [1] (with lipofectamine, 500 μg/ml) it was 7726 % control; in series [1] (without lipofectamine, 4 μg/ml) it was 276 % control; in series [1] (setting [5]), 364 % control. Moreover, the “penetration of the peptide+FITC” value came to 1486 % control in series [1] (setting [6]) and 982 % control in series [1] (setting [7]).

For the compound `O=c1cc(CO)occ1O` [Kojic acid, reference compound], in series [4] (tested between 36 and 80 μg/ml), the “inhibition of the NDP-MSH induction of the synthesis of melanin” value is reported as “sharply inhibited”. Besides, the “inhibition of the synthesis of melanine” value in series [4] (6.9 μg/ml) was −13 % of inhibition; in series [4] (15.6 μg/ml), −7 % of inhibition; in series [4] (36 μg/ml), 33 % of inhibition; in series [4] (80 μg/ml), 75 % of inhibition.
